Test results reported in patent publication US9695144B2, “Dibenzazepine derivatives and use thereof” (Purdue Pharma L.P., priority 2013, dated 2017).
Like-named read-outs stand apart in the source and are kept apart here.

Experiments:
human Nav1.7 = human Nav1.7 (Homo sapiens, UniProt Q15858); assay: FLIPR or FLIPR TETRA sodium dye assay for sodium channel blocking activity; assay type: cell-based
hNav1.7 [1] = molecular target: T1, hNav1.7 (Homo sapiens, UniProt Q15858); settings: read-out: Nav1.7 Activity (μM) EP assay Ki; affinity for the inactivated state of the channel; hNav1.7 HEK-293 cells
Nav1.3 = Nav1.3 (Homo sapiens, UniProt Q9NY46); settings: read-out: TTX IC50; cited from earlier work
Nav1.6 = Nav1.6 (Homo sapiens, UniProt Q9UQD0); settings: read-out: TTX IC50; cited from earlier work
Nav1.8 = Nav1.8 (Homo sapiens, UniProt Q9Y5Y9); settings: read-out: TTX IC50; cited from earlier work
Nav1.9 = Nav1.9 (Homo sapiens, UniProt Q9UI33); settings: read-out: TTX IC50; cited from earlier work
Nav1.1 = Nav1.1 (Homo sapiens, UniProt P35498); settings: read-out: TTX IC50; cited from earlier work
Nav1.2 = Nav1.2 (Homo sapiens, UniProt Q99250); settings: read-out: TTX IC50; cited from earlier work
hNav1.7 [2] = molecular target: T1, hNav1.7; assay: cell-based
[3] = read-out: Nav1.7 Activity (μM) FLIPR assay IC50
[4] = recombinant HEK293 cells expressing human Nav1.7 alpha subunit, veratridine and scorpion venom as agonists, read-out: Nav1.7 Activity (μM) FLIPR assay IC50

T1 sequence (Q15858 1-1977 isoform Q15858-3): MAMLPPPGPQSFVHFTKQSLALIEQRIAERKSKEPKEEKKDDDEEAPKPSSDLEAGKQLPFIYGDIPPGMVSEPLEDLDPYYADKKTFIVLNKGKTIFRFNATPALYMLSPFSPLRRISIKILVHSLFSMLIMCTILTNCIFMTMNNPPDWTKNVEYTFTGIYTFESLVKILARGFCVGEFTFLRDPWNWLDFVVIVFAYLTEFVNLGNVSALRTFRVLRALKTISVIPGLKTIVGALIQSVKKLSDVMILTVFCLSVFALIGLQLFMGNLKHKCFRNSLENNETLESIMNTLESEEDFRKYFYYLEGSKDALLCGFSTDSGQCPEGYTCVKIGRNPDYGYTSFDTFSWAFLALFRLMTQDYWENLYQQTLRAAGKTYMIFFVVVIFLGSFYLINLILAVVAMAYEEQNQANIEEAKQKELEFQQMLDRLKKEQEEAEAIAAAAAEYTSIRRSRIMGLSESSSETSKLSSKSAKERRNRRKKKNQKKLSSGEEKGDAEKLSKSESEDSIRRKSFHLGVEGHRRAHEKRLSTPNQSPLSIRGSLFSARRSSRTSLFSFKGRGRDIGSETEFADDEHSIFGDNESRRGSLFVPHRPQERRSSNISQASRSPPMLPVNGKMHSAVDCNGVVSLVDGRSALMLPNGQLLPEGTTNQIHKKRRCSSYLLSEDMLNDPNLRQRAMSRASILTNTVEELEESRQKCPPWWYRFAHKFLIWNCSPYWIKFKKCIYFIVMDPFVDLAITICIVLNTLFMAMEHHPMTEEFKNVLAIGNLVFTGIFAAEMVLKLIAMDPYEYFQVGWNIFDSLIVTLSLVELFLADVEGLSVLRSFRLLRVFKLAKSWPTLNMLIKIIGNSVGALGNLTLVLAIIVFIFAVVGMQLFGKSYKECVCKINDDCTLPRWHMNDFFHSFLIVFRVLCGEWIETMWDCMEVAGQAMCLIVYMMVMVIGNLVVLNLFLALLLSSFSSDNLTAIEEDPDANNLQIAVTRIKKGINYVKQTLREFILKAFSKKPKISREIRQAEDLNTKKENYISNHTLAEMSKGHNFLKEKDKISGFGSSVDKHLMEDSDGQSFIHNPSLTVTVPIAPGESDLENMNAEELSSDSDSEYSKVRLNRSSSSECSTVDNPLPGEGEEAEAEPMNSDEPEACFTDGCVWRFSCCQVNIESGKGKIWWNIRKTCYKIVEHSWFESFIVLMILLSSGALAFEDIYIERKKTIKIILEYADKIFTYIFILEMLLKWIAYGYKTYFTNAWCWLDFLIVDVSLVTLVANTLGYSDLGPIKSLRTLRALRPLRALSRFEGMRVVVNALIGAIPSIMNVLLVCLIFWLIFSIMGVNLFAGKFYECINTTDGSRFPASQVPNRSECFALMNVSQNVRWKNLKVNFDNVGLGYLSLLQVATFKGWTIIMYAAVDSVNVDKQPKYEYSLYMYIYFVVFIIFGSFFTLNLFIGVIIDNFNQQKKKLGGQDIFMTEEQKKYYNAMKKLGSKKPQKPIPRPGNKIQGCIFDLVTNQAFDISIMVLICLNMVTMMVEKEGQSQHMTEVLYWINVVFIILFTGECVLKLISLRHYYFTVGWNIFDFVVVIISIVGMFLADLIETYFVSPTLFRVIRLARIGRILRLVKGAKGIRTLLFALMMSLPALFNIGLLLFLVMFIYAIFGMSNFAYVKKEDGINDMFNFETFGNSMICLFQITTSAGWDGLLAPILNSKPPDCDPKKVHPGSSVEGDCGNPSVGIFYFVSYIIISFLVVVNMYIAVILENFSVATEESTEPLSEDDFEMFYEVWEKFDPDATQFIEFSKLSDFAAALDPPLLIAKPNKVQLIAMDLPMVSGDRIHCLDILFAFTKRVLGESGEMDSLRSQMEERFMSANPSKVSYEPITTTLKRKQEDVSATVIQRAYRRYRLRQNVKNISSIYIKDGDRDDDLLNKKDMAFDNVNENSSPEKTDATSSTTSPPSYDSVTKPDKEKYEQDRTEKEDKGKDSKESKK
Sequence of human Nav1.7 (Q15858 1-1977 isoform Q15858-3): as above
Sequence of Nav1.9 (Q9UI33 whole entry, looked up): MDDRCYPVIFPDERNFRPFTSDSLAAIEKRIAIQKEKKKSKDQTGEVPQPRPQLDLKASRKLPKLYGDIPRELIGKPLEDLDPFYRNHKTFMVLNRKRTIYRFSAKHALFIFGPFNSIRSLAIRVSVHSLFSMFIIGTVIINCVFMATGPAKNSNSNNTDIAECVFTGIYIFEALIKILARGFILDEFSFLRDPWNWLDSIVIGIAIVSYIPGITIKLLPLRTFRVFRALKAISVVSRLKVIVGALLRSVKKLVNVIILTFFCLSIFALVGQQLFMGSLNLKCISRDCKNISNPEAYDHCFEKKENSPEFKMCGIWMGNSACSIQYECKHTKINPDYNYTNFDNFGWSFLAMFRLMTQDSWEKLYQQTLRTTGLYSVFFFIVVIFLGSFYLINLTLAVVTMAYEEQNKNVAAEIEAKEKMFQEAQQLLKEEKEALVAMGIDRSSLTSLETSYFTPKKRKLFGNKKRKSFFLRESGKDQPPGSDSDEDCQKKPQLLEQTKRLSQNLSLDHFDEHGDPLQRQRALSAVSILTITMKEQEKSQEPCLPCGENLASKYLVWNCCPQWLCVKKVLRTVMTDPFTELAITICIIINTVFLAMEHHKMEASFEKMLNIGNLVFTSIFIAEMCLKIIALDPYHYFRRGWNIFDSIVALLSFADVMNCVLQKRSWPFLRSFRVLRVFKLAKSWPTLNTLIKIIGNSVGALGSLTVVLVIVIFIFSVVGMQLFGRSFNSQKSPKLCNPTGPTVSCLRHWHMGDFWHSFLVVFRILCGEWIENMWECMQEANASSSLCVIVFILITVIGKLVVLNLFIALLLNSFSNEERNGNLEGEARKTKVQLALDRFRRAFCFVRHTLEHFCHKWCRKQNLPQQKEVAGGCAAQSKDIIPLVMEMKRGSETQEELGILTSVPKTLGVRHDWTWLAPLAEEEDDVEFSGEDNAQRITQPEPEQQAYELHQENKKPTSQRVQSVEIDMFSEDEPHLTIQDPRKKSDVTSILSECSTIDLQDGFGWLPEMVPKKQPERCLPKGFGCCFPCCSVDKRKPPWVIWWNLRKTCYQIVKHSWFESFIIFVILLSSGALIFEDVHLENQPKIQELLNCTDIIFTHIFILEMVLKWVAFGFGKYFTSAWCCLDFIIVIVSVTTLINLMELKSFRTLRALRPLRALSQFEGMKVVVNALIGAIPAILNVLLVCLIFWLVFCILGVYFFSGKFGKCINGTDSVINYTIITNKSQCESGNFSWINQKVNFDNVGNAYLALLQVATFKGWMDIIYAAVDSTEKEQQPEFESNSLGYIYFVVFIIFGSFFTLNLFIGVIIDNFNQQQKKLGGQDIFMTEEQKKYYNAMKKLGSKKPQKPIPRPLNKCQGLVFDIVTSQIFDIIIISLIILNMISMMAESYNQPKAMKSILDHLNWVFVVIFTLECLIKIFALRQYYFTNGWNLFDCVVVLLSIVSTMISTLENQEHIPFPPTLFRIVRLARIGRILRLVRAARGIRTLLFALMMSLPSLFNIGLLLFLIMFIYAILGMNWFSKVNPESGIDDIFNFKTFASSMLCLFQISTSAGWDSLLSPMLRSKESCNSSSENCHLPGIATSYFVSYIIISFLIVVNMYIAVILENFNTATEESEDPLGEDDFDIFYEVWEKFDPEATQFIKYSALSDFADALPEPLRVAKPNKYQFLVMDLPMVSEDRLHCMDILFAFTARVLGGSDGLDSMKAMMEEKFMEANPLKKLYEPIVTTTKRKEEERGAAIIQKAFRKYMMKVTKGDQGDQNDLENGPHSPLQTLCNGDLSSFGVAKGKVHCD

CC(=O)N1c2ccc(Cl)cc2CCc2cc(-c3cccc(C(N)=O)n3)ccc21 [Compound 42, 6-(5-acetyl-8-chloro-10,11-dihydro-5H-dibenzo[b,f]azepin-2-yl)picolinamide]
IC50 (human Nav1.7; [3]): 7.62 ± 0.797 µM
Ki (hNav1.7 [1]): 3.03 ± 1.26 µM

CN1Cc2cc(C(F)(F)F)ccc2Oc2ccc(-c3cccc([C@H](O)CO)n3)cc21 [Compound 45, (S)-1-(6-(10-methyl-2-(trifluoromethyl)-10,11-dihydrodibenzo[b,f][1,4]oxazepin-8-yl)pyridin-2-yl)ethane-1,2-diol]
IC50 (human Nav1.7; [3]): 1.03 ± 0.067 µM

CCN1c2ccc(Cl)cc2CCc2cc(-c3cccc(C(N)=O)n3)ccc21 [Compound 41, 6-(8-chloro-5-ethyl-10,11-dihydro-5H-dibenzo[b,f]azepin-2-yl)picolinamide]
IC50 (human Nav1.7): > 20 µM

CN1c2ccc(-c3cccc([C@H](O)CO)n3)cc2CCc2cc(C(F)(F)F)ccc21 [Compound 46, (S)-1-(6-(5-methyl-8-(trifluoromethyl)-10,11-dihydro-5H-dibenzo[b,f]azepin-2-yl)pyridin-2-yl)ethane-1,2-diol]
IC50 (human Nav1.7; [3]): 1.08 ± 0.106 µM
Ki (hNav1.7 [1]): 1.03 ± 0.227 µM

OC[C@@H](O)c1cccc(-c2ccc3c(c2)CNc2cc(C(F)(F)F)ccc2O3)n1 [Compound 43, (S)-1-(6-(8-(trifluoromethyl)-10,11-dihydrodibenzo[b,f][1,4]oxazepin-2-yl)pyridin-2-yl)ethane-1,2-diol]
IC50 (human Nav1.7; [3]): 2.57 ± 0.059 µM

C[C@H](Nc1cc(C(N)=O)nc(-c2ccc3c(c2)CN(C)c2cc(C(F)(F)F)ccc2O3)n1)C(N)=O [Compound 47, (S)-6-((1-amino-1-oxopropan-2-yl)amino)-2-(10-methyl-8-(trifluoromethyl)-10,11-dihydrodibenzo[b,f][1,4]oxazepin-2-yl)pyrimidine-4-carboxamide]
IC50 (human Nav1.7; [4]): 4.79 ± 0.628 µM

CN1Cc2cc(-c3cccc([C@H](O)CO)n3)ccc2Oc2ccc(C(F)(F)F)cc21 [Compound 44, (S)-1-(6-(10-methyl-8-(trifluoromethyl)-10,11-dihydrodibenzo[b,f][1,4]oxazepin-2-yl)pyridin-2-yl)ethane-1,2-diol]
IC50 (human Nav1.7; [4]): 0.373 ± 0.047 µM

NC(=O)c1cccc(-c2ccc3c(c2)CCc2cc(Cl)ccc2N3)n1 [Compound 40, 6-(8-chloro-10,11-dihydro-5H-dibenzo[b,f]azepin-2-yl)picolinamide]
IC50 (human Nav1.7; [3]): 1.96 ± 0.036 µM
Ki (hNav1.7 [1]): 0.648 ± 0.123 µM

CN1c2ccc(Cl)cc2CCc2cc(-c3cccc(C(N)=O)n3)ccc21 [Compound 39, 6-(8-chloro-5-methyl-10,11-dihydro-5H-dibenzo[b,f]azepin-2-yl)picolinamide]
IC50 (human Nav1.7; [3]): 0.842 ± 0.04 µM

CN1Cc2cc(-c3cccc([C@H](O)[C@@H](O)C(N)=O)n3)ccc2Oc2ccc(C(F)(F)F)cc21 [Compound 48, (2R,3S)-2,3-dihydroxy-3-(6-(10-methyl-8-(trifluoromethyl)-10,11-dihydrodibenzo[b,f][1,4]oxazepin-2-yl)pyridin-2-yl)propanamide]
IC50 (human Nav1.7; [3]): 1.05 ± 0.069 µM

NC1=N[C@H](O)[C@H]2[C@H]3O[C@]4(O)O[C@@H]([C@@H](O)[C@@]2(N1)[C@@H]4O)[C@]3(O)CO [TTX, tetrodotoxin]
IC50 (Nav1.3): 15 nM
IC50 (Nav1.6): 6 nM
IC50 (Nav1.8): 50000 nM
IC50 (Nav1.9): 1000 nM
IC50 (Nav1.1): 10 nM
IC50 (Nav1.2): 10 nM

NC(=O)CN1Cc2cc(-c3cccc([C@H](O)CO)n3)ccc2Oc2ccc(C(F)(F)F)cc21 [Compound 49, (S)-2-(2-(6-(1,2-dihydroxyethyl)pyridin-2-yl)-8-(trifluoromethyl)dibenzo-[b,f][1,4]oxazepin-10(11H)-yl)acetamide]
Ki (hNav1.7 [2]): 1800 ± 794 nM
